Reference: the supplement of paper PMC10331698
± gives the standard deviation of the averaged measurements.

What was measured:
Test in all cases: level (log10 ratio to DMSO vehicle control); higher = higher biomarker level / cell amount than vehicle control
Settings in all cases: in DMSO
Perfluorobutanoic acid = compound: O=C(O)C(F)(F)C(F)(F)C(F)(F)F [Perfluorobutanoic acid]
Method: (§1)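 BioMAP Diversity Plus panel of 12 human primary cell co-culture systems (3C, 4H, LPS, SAg, BT, BF4T, BE3C, CASM3C, HDF3CGF, KF3CT, MyoF, Mphg). Compounds were added 1 h before stimulation and left for 24 h (MyoF 48 h; BT 72 h for soluble read-outs or 6 d for IgG). Biomarkers were read by ELISA, cytotoxicity by SRB, PBMC viability and proliferation by Alamar Blue. Each well value was divided by the mean of 8 DMSO control wells on the same plate and log10 transformed; duplicate blinded samples were tested at 4 concentrations.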

[1] = compound: O=C(O)C(F)(F)OC(F)(F)C(F)(F)OC(F)(F)C(=O)O [Perfluoro-3,6-dioxaoctane-1,8-dioic acid]
Method: as §1

[2] = compound: OCC(F)(F)OC(F)(F)C(F)(F)OC(F)(F)CO [1H,1H,8H,8H-Perfluoro-3,6-dioxaoctane-1,8-diol]
Method: as §1

Perfluoropropanoic acid = compound: O=C(O)C(F)(F)C(F)(F)F [Perfluoropropanoic acid]
Method: as §1

Perfluoro-1-iodohexane = compound: FC(F)(F)C(F)(F)C(F)(F)C(F)(F)C(F)(F)C(F)(F)I [Perfluoro-1-iodohexane]
Method: as §1

[3] = compound: O=C(O)C(F)(F)C(F)(F)OC(F)(F)F [Perfluoro-3-methoxypropanoic acid]
Method: as §1

[4] = compound: OCCC(F)(F)C(F)(F)C(F)(F)C(F)(F)C(F)(F)C(F)(F)F [6:2 Fluorotelomer alcohol]
Method: as §1

Row | Test System | level (log10) (Perfluorobutanoic acid; 6700 nM) | level (log10) (Perfluorobutanoic acid; 20000 nM) | level (log10) (Perfluorobutanoic acid; 60000 nM) | level (log10) ([1]; 6700 nM) | level (log10) ([1]; 20000 nM) | level (log10) ([1]; 60000 nM) | level (log10) ([2]; 6700 nM) | level (log10) ([2]; 20000 nM) | level (log10) ([2]; 60000 nM) | level (log10) (Perfluoropropanoic acid; 6700 nM) | level (log10) (Perfluoropropanoic acid; 20000 nM) | level (log10) (Perfluoropropanoic acid; 60000 nM) | level (log10) (Perfluoro-1-iodohexane; 6700 nM) | level (log10) (Perfluoro-1-iodohexane; 20000 nM) | level (log10) (Perfluoro-1-iodohexane; 60000 nM) | level (log10) ([3]; 6700 nM) | level (log10) ([3]; 20000 nM) | level (log10) ([3]; 60000 nM) | level (log10) ([4]; 6700 nM) | level (log10) ([4]; 20000 nM)
1 | HDF3CGF:EGFR | -0.004 ± 0.041 | -0.0155 ± 0.025 | 0.012 ± 0.0057 | -0.001 ± 0.0057 | 0.0145 ± 0.0021 | 0.0245 ± 0.035 | 0.0035 ± 0.013 | 0.0175 ± 0.025 | 0.0205 ± 0.054 | -0.0215 ± 0.035 | -0.0145 ± 0.022 | 0.0055 ± 0.019 | 0.016 ± 0.05 | 0.0115 ± 0.043 | -0.035 ± 0.14 | -0.002 ± 0.0085 | 0.003 ± 0.0085 | 0.0165 ± 0.029 | 0.0005 ± 0.012 | 0.006 ± 0.0099
2 | HDF3CGF:CXCL10/IP-10 | -0.002 ± 0.0057 | 0.0035 ± 0.005 | -0.0025 ± 0.013 | 0.0105 ± 0.023 | -0.004 ± 0.011 | -0.0085 ± 0.023 | 0.004 ± 0.0014 | -0.0085 ± 0.00071 | -0.011 ± 0.021 | -0.005 ± 0.0085 | -0.001 ± 0.0028 | 0.02 ± 0.0071 | -0.033 ± 0.014 | -0.0435 ± 0.0035 | -0.114 ± 0.076 | 0.001 ± 0.011 | 0.0055 ± 0.011 | -0.0135 ± 0.021 | -0.009 ± 0.0099 | -0.0295 ± 0.0092
3 | CASM3C:PAI-I | -0.002 ± 0.0099 | -0.003 ± 0.018 | -0.0005 ± 0.011 | 0.0025 ± 0.00071 | 0.0005 ± 0.0078 | 0.0155 ± 0.0064 | 0.006 ± 0.0028 | 0 ± 0.0028 | 0.011 ± 0.017 | -0.0035 ± 0.0021 | -0.003 ± 0.0014 | 0.0005 ± 0.0064 | -0.003 ± 0.0071 | -0.007 ± 0.0014 | -0.003 ± 0.0028 | 0.0015 ± 0.022 | 0.004 ± 0.013 | 0.0095 ± 0.0078 | 0.0105 ± 0.00071 | 0.005 ± 0.0057
4 | 3C:CD54/ICAM-1 | -0.0185 ± 0.019 | -0.029 ± 0.017 | -0.03 ± 0.024 | -0.0005 ± 0.0092 | -0.019 ± 0.0085 | -0.0135 ± 0.0035 | -0.0015 ± 0.016 | -0.0005 ± 0.0064 | -0.0035 ± 0.011 | -0.0365 ± 0.012 | -0.0085 ± 0.0064 | 0.017 ± 0.02 | 0 ± 0.0057 | 0.0025 ± 0.0078 | 0.012 ± 0.0014 | -0.001 ± 0.021 | -0.034 ± 0.0028 | -0.0055 ± 0.029 | -0.006 ± 0.013 | -0.0185 ± 0.044
5 | CASM3C:Serum Amyloid A | -0.021 | 0.0225 ± 0.016 | -0.009 ± 0.041 | -0.012 ± 0.0028 | -0.0235 ± 0.011 | 0.0265 ± 0.06 | -0.0235 ± 0.044 | -0.0195 ± 0.043 | -0.036 ± 0.025 | -0.05 ± 0.033 | -0.0755 ± 0.026 | -0.0465 ± 0.054 | 0.0035 ± 0.042 | 0.008 ± 0.035 | 0.007 ± 0.025 | -0.0155 ± 0.0064 | -0.017 ± 0.0099 | 0.008 ± 0.069 | -0.013 ± 0.0028 | -0.009 ± 0.0042
6 | MyoF:CXCL8/IL-8 | -0.03 ± 0.1 | -0.0355 ± 0.073 | 0.025 ± 0.024 | -0.0025 ± 0.023 | -0.012 ± 0.0085 | 0.034 ± 0.045 | 0.006 ± 0.11 | 0.0205 ± 0.088 | 0.0365 ± 0.069 | -0.0055 ± 0.029 | -0.004 ± 0.085 | 0.022 ± 0.075 | 0.021 ± 0.041 | 0.023 ± 0.041 | 0.0385 ± 0.028 | 0.001 ± 0.033 | -0.0165 ± 0.0092 | 0.0475 ± 0.0078 | 0.0185 ± 0.032 | -0.0045 ± 0.0021
7 | MyoF:alpha-SM Actin | 0.006 ± 0.037 | 0.003 ± 0.031 | 0.024 ± 0.058 | 0.001 | -0.0125 ± 0.013 | 0.0245 ± 0.0021 | 0.003 ± 0.0057 | 0.013 ± 0.017 | 0.004 ± 0.018 | -0.031 ± 0.035 | -0.013 ± 0.017 | 0.011 ± 0.0057 | -0.073 ± 0.021 | -0.173 ± 0.086 | -0.38 ± 0.0092 | 0.0015 ± 0.00071 | 0.011 ± 0.035 | 0.039 ± 0.0028 | -0.001 ± 0.018 | 0.0095 ± 0.026
8 | KF3CT:MMP-9 | -0.01 ± 0.021 | -0.0185 ± 0.019 | 0.0005 ± 0.013 | -0.0105 ± 0.012 | 0 ± 0.0042 | 0.007 ± 0.0085 | -0.0005 ± 0.00071 | 0.0085 ± 0.011 | 0.0265 ± 0.0078 | -0.0405 ± 0.012 | -0.053 ± 0.035 | -0.0105 ± 0.032 | -0.0225 ± 0.0064 | -0.0225 ± 0.0092 | -0.044 ± 0.0099 | -0.002 ± 0.0085 | 0.001 ± 0.0071 | 0.01 ± 0.014 | -0.007 ± 0.035 | -0.0045 ± 0.015
9 | KF3CT:CXCL8/IL-8 | 0.012 ± 0.013 | -0.009 ± 0.0085 | 0.0045 ± 0.013 | -0.0015 ± 0.0078 | 0.0025 ± 0.033 | 0.026 ± 0.025 | 0.011 ± 0.021 | 0.0125 ± 0.028 | 0.016 ± 0.018 | -0.0125 ± 0.011 | 0.0095 ± 0.0092 | 0.0475 ± 0.03 | -0.0125 ± 0.016 | 0.003 ± 0.0014 | 0 ± 0.011 | 0.007 ± 0.016 | 0.028 ± 0.031 | 0.017 ± 0.02 | 0 ± 0.0057 | -0.0165 ± 0.005
10 | KF3CT:SRB | -0.008 ± 0.0042 | -0.0005 ± 0.00071 | 0.006 ± 0.018 | -0.0185 ± 0.011 | -0.0185 ± 0.0092 | 0.0015 ± 0.012 | -0.002 ± 0.0057 | -0.0025 ± 0.0021 | 0.0075 ± 0.023 | 0.005 ± 0.0071 | -0.005 ± 0.0028 | -0.003 | -0.0075 ± 0.00071 | -0.0065 ± 0.00071 | 0 ± 0.011 | -0.0145 ± 0.0035 | -0.009 ± 0.0014 | -0.002 ± 0.013 | -0.0085 ± 0.0078 | -0.0225 ± 0.005
11 | HDF3CGF:CXCL8/IL-8 | -0.002 ± 0.0014 | -0.004 ± 0.0085 | 0.0015 ± 0.0021 | -0.0005 ± 0.0021 | 0.0135 ± 0.005 | 0.017 ± 0.0042 | 0.0115 ± 0.023 | 0.009 ± 0.024 | 0.015 ± 0.028 | -0.0055 ± 0.0021 | 0.007 ± 0.011 | 0.017 ± 0.0057 | -0.0055 ± 0.0021 | -0.002 ± 0.0057 | -0.024 ± 0.037 | 0.0045 ± 0.0064 | 0.0125 ± 0.0035 | 0.003 ± 0.017 | 0.004 ± 0.0028 | 0.004
12 | lMphg:CD62E/E-Selectin | 0.0155 ± 0.036 | 0.027 ± 0.041 | 0.0175 ± 0.023 | -0.027 ± 0.034 | -0.018 ± 0.016 | 0.0185 ± 0.0092 | -0.0235 ± 0.019 | 0.004 ± 0.033 | -0.003 ± 0.03 | -0.008 ± 0.0057 | -0.004 ± 0.0099 | 0.0385 ± 0.0035 | 0.005 ± 0.0042 | 0.018 ± 0.02 | 0.0305 ± 0.033 | -0.012 ± 0.018 | -0.037 ± 0.03 | 0.019 ± 0.075 | -0.0545 ± 0.011 | 0.0005 ± 0.043
13 | MyoF:Collagen III | -0.0155 ± 0.016 | 0.0025 ± 0.011 | -0.0145 ± 0.025 | 0.0035 ± 0.0078 | -0.005 ± 0.017 | 0.0065 ± 0.015 | -0.0225 ± 0.015 | 0.001 | -0.012 ± 0.028 | 0.0165 ± 0.012 | 0.0135 ± 0.016 | 0.0385 ± 0.015 | -0.0225 ± 0.0064 | -0.039 ± 0.0057 | -0.132 ± 0.036 | 0.004 ± 0.0099 | 0.0095 ± 0.0078 | 0.013 ± 0.0014 | 0.003 ± 0.016 | -0.005 ± 0.0014
14 | CASM3C:CD87/uPAR | -0.005 ± 0.013 | 0.0095 ± 0.0021 | -0.0085 ± 0.026 | -0.023 ± 0.03 | -0.023 ± 0.018 | -0.0255 ± 0.00071 | 0.0135 ± 0.00071 | -0.0085 ± 0.0078 | -0.016 ± 0.0085 | -0.0215 ± 0.019 | -0.008 ± 0.038 | 0.001 ± 0.013 | 0 ± 0.0085 | -0.0105 ± 0.03 | 0.003 ± 0.021 | -0.021 ± 0.048 | -0.0235 ± 0.035 | -0.031 ± 0.033 | -0.026 ± 0.013 | -0.002 ± 0.0042
15 | HDF3CGF:M-CSF | 0.0025 ± 0.012 | 0.0055 ± 0.005 | 0.0035 ± 0.00071 | -0.007 ± 0.014 | -0.003 ± 0.0028 | -0.0045 ± 0.00071 | -0.0025 ± 0.0078 | -0.01 ± 0.0071 | 0.01 ± 0.0099 | 0.0065 ± 0.067 | -0.042 ± 0.027 | -0.0295 ± 0.042 | 0.0155 ± 0.019 | 0.024 ± 0.0028 | -0.021 ± 0.034 | -0.005 ± 0.0085 | -0.0035 ± 0.0021 | -0.005 ± 0.0085 | -0.009 ± 0.0099 | -0.0075 ± 0.0021
